Reference: patent US7615574B2, “Synergistic composition for treating leukemia” (Council of Scientific and Industrial Research, priority 2002, dated 2009)
Like-named read-outs stand apart in the source and are kept apart here.

Assays:
[1] = test system: K 562 Erythroleukemia cell line; assay: CA, PCQ and combination: growth inhibition of K562 (2×10^6 cells per ml per well); format: cell-based, human; settings: for percentage growth inhibition of Erythroleukemia cells: concentration not given
[2] = test system: U937 Promonocyte cell line; assay: CA, PCQ and combination: growth inhibition of U937 (2×10^6 cells per ml per well); format: cell-based, human; settings: for percentage growth inhibition of promonocyte cells: concentration not given
[3] = test system: CML Patient's Leukemic cells; assay: CA, PCQ and combination: growth inhibition of CML patient's leukemic cells (2×10^6 cells per ml per well); format: cell-based, human; settings: for percentage growth inhibition of CML's leukemic cells: concentration not given
leukemia cells = assay: Biological activity of Piper betel HPLC zones and peaks: destruction of leukemic cells; format: cell-based; settings: HPLC zones and peaks of Fraction E of Piper betel leaf extract
Source text: Collected material was examined for biological activity i.e. destruction of leukemic cells. […] 10 gm of above-mentioned material was loaded on Sephadex LH-20 column and chromatographed with water, water-methanol (1:1) and methanol as eluent. Three different fractions thus obtained from three different solvent systems were separately checked for biological activity. The activity was located only on
Fraction 2 i.e. Methanol-water (1:1) and termed as fraction E. Fraction E was then subjected to HPLC analysis using Intersil ODS-3 analytical column. The column was equilibrated with methanol-water-acetic acid (23:76:1), flow rate was maintained at 1.0 ml per min and peaks were identified at 280 nm. According to the retention time (RE) different peaks could be divided into three zones, ZA, ZB and ZC (FIG. 1). ZA had 4 major peaks whereas ZB had very small to moderate 10 peaks and ZC had two distinct peaks. It was convenient to observe biological activity of three zones AA, ZB and ZC, which were separately tested on leukemia cells for destructive activity.
The Zone ZB contained 10 peaks (1 to 10) of varied sizes. […] For this reason all different peaks were separately monitored for biological activity. […] On searching for activity of these peaks i.e. 1,5,6,7,9 and 10 corresponding to Rt 5.16, 8.34, 9.16, 9.86, 13.94 and 14.68 respectively. […]

Normal individual's PBMC = assay: CA, PCQ and combination: growth inhibition of normal individual's PBMC (2×10^6 cells per ml per well); format: cell-based, human
Source text: Preparation of peripheral blood mononuclear cells (PBMC) from normal individuals. Whole blood was collected and mononuclear cells were separated by Ficoll/Hypaque density gradient centrifugation.
The number of cells used was 2×10^6 per ml per well.

[4] = test system: Molt 4 (T lymphoid Cell line); assay: Growth inhibition of T lymphoid cell line Molt 4 by CA in vitro; format: cell-based; settings: Homo sapiens, 1 × 10^5 cells per ml per well, read-out: Percentage Inhibition of Cell Growth; for inhibition at 50 µg/mL: CA 50.0 μg/ml; for inhibition at 100 µg/mL: CA 100.0 μg/ml; for inhibition at 200 µg/mL: CA 200.0 μg/ml
Source text: Culture of T-Lymphoid cell line Molt-4. This cell line was obtained from American Type culture collection (ATCC), VA, USA and grown in vitro as described for the cell line K562.

[5] = test system: CML Patient's Leukemic cells; assay: Analysis of cell cycle progression and apoptosis by Flow cytometry (propidium iodide); format: cell-based, human; settings: 100.0 μg/ml; two days of culture
Description: Analysis of cell cycle progression and apoptosis by Flow cytometry PBMC of a CML patient was cultured in RPMI-1640 medium supplemented with 10% […] fetal bovine serum in the presence or absence of CA (100.0 μg/ml) for 48 hr. at 37° C. in 5% CO2. Cells were fixed with 40% ethanol treated with 500 μg/ml Rnase A, and then with 69 μM propidium iodide for analysis of DNA content by Flow Cytometry as described (Mitra et al., Molecular Medicine, 6:527-541, 2000).

CML patient's PBMC = assay: Incubation of CML patient's PBMC with CA, viable cell count (growth inhibition); format: cell-based, human; settings: PBMC / leukemic cells of CML patient
Description: Whole blood (10 ml each) was drawn from previously diagnosed myeloid leukemic patients, one patient was diagnosed as AML and the other one was diagnosed as CML. Mononuclear cells were separated by Ficoll/hypaque density gradient centrifugation. PBMC (1×10^5-2×10^6/ml) of myeloid leukemia patients were incubated with varied concentrations of CA for 48 hours at 37° C. in 5% CO2. Cells were then washed and counted for viability.

In the case of O=C(C=Cc1ccc(O)cc1)OC1CC(O)(C(=O)O)CC(O)C1O (stereo not shown) [PCQ, 3-o-p-Coumaryl quinic acid], the “% Inhibition of cell growth (After 1 day of incubation)” value (“% Inhibition of cell growth” below) ([1]; K 562, single compound 50.0 μg/ml, 1 day, 2×10^6 cells per ml per well) is reported as 8.00%, the “percentage growth inhibition of Erythroleukemia cells” value [1] is reported as “about 8%” and the “% Inhibition of cell growth” value ([2]; U937, single compound 50.0 μg/ml, 1 day, 2×10^6 cells per ml per well) is reported as 4.17%. For the same compound, the “percentage growth inhibition of promonocyte cells” value [2] was “about 5%”, the “% Inhibition of cell growth” value ([3]; CML patient's leukemic cells, single compound 50.0 μg/ml, 1 day, 2×10^6 cells per ml per well) was 4.67% and the “percentage growth inhibition of CML's leukemic cells” value [3] was “about 5%”. For the same compound, the “biological activity i.e. destruction of leukemic cells (in words)” value (leukemia cells) was “demonstrated considerable activity”, the “% Inhibition of cell growth” value (Normal individual's PBMC; single compound 25.0 μg/ml) was 0.00% and the “% Inhibition of cell growth” value (Normal individual's PBMC; single compound 50.0 μg/ml) was 1.67%.

With O=C(/C=C/c1ccc(O)c(O)c1)O[C@@H]1C[C@](O)(C(=O)O)C[C@@H](O)[C@H]1O (single isomer, unassigned) [CA, Chlorogenic acid] the “percentage growth inhibition of Erythroleukemia cells” value [1] was “about 30%”, the inhibition at 25 µg/mL ([2]; Homo sapiens, U-937, 24 h, U937, single compound 25.0 μg/ml, 1 day, 2×10^6 cells per ml per well, read-out: % Inhibition of cell growth (After 1 day of incubation)) was no more than 16.7% and the “percentage growth inhibition of promonocyte cells” value [2] was “about 25%”. For the same compound, the inhibition at 25 µg/mL ([3]; Homo sapiens, 24 h, CML patient's leukemic cells, single compound 25.0 μg/ml, 1 day, 2×10^6 cells per ml per well, read-out: % Inhibition of cell growth (After 1 day of incubation)) was no more than 2.38%, the inhibition at 50 µg/mL ([3]; Homo sapiens, 24 h, CML patient's leukemic cells, single compound 50.0 μg/ml, 1 day, 2×10^6 cells per ml per well, read-out: % Inhibition of cell growth (After 1 day of incubation)) was 4.67% and the “percentage growth inhibition of CML's leukemic cells” value [3] was “about 5%”. It also gave an inhibition at 50 µg/mL ([4]; 24 h, 1 day) of 3.57%, an inhibition at 100 µg/mL ([4]; 24 h, 1 day) of 6.89% and an inhibition at 200 µg/mL ([4]; 24 h, 1 day) of 13.8%. It also gave an inhibition at 50 µg/mL ([4]; 48 h, 2 days) of 6.67%, an inhibition at 100 µg/mL ([4]; 48 h, 2 days) of 14.7% and an inhibition at 200 µg/mL ([4]; 48 h, 2 days) of 46.7%. The inhibition at 100 µg/mL ([4]; 72 h, 3 days) was 18.8%, the “biological activity i.e. destruction of leukemic cells (in words)” value (leukemia cells) was “detectable activity” and the “apoptosis in CML patients Leukemic cells in vitro (cell-cycle analysis)” value [5] was “caused apoptosis”. For the same compound, the “destruction of cells (in words)” value (CML patient's PBMC) was “destroyed”.
